# Results taken from patent publication US8252781B2, “1,2-diazetidin-3-one derivatives and drugs containing same” (Kowa Company, Ltd., priority 2008, dated 2012).
# Read-outs that look alike come from different tables or passages of the source.
# Columns and labels:
# mouse 11β-HSD1 = target: T1, mouse 11β-HSD1 (Mus musculus, UniProt P50172); assay: Enzyme inhibitory activity, mouse 11β-HSD1 (lysate of stably expressing CHO-K1 cells, cortisol by competitive ELISA); format: biochemical; settings: Table 2; mouse 11β-HSD1, cell lysate, 37° C. for 1 hour; read-out: m HSD1 in vitro assay (IC50 uM)
# T1 construct: The obtained PCR products of about 0.9 kbp, 1.2 kbp, and 0.9 kbp were subcloned into an expression vector pcDNA3.1+/Zeo; expressed in transfected cells
# Procedure: (§1) 1. Human 11β-HSD1-, Human 11β-HSD2- and Mouse 11β-HSD1-Gene Clonings and Establishment of Stably Expressing Cells
# (§2) Human 11β-HSD1-, human 11β-HSD2-, and mouse 11β-HSD1-gene clonings were conducted using as a template a reverse transcription product of human-liver RNA, human-kidney RNA (CELL APPLICATIONS), and mouse-kidney RNA respectively, by means of PCR cloning with reference to nucleotide sequences of Genbank Accession Nos. NM_005525, NM_000196, and NM_008288. The obtained PCR products of about 0.9 kbp, 1.2 kbp, and 0.9 kbp were subcloned into an expression vector pcDNA3.1+/Zeo (Invitrogen).
# (§3) Human 11β-HSD1- and human 11β-HSD2-expressing vectors were transfected into human kidney-derived cell line, HEK293 cells, using a transfection reagent, jet PEI (Funakoshi). Mouse 11β-HSD1 was transfected to Chinese hamster ovary-derived cell line, CHO-K1 cells. Selection was conducted with 200-400 μg/mL of zeocine (Invitrogen) to provide stably expressing-cell clones. The stably expressing cells were suspended in buffer solution A (20 mmol/L Tris-HCl, pH 7.4, 250 mmol/L sucrose, 1 mmol/L EGTA, 1 mmol/L EDTA, 1 mmol/L MgCl2), sonicated, and then stored at −80° C.
# (§4) 2. Assay of Enzyme Inhibitory Activity
# (§5) An enzymatic reaction was conducted using a polystyrene 96-well plate. Each well was added with 1 μL of a test agent dissolved in DMSO and then diluted (0.003 to 3 mmol/L), and further added with 10 μL of cell lysate diluted to a concentration of 0.1 mg/mL to 0.4 mg/mL. Next, 90 μL of buffer solution A containing substrate (100 nmol/L cortisone or cortisol) and coenzyme (400 μmol/L NADPH or NAD+) was added and the mixture was incubated at 37° C. for 1 hour. The enzymatic reaction was stopped by treating at 95° C. for 3 minutes. Cortisol that was present in the reaction solution was determined by a competitive ELISA shown below.
# (§6) Anti-rabbit IgG antibody (Chemi-con) diluted to 2 μg/mL with carbonate buffer solution (pH 9.6) was added in 100 μL each to a 96-well immuno plate (Nunc) and immobilized by an incubation at 4° C. overnight. 50 μL of enzymatic reaction solution was put onto the plates, and further, anti-cortisol antibody (Cosmo Bio) and HRP-labeled cortisol (Cosmo Bio), diluted with buffer solution B (25 mmol/L Tris-HCl pH 7.4, 137 mmol/L NaCl, 2.68 mmol/L KCl), were added in 50 μL respectively and incubated at 4° C. overnight. After washed three times with buffer solution B containing 0.05% Tween 20, the plates were allowed to develop color by adding 100 μL of color reagent, TMB (Moss). The color reaction was stopped by 25 μL of 1 mol/L sulfuric acid and the absorbance was determined at 450 nm with a microplate reader (Molecular Device, VersaMax).
# (§7) The values of human 11β-HSD1, human 11β-HSD2, and mouse 11β-HSD1 activities were subtracted from 100, and the resultant values were regarded as the respective 11β-HSD inhibition rates of example compounds. […] The comparison of human 11β-HSD1 and human 11β-HSD2 inhibiting activities is shown in Table 1, and the comparison of human 11β-HSD1 and mouse 11β-HSD1 inhibiting activities is shown in Table 2.
# human 11β-HSD1 = target: T2, human 11β-HSD1 (Homo sapiens, UniProt P28845); assay: Enzyme inhibitory activity, human 11β-HSD1 (lysate of stably expressing HEK293 cells, cortisol by competitive ELISA); format: biochemical; settings: human 11β-HSD1, cell lysate, 37° C. for 1 hour, read-out: h HSD1 in vitro assay (IC50 uM)
# T2 construct: The obtained PCR products of about 0.9 kbp, 1.2 kbp, and 0.9 kbp were subcloned into an expression vector pcDNA3.1+/Zeo; expressed in transfected cells
# Procedure: as §1, §2, §3, §4, §5, §6, §7
# T2 sequence (P28845 whole entry): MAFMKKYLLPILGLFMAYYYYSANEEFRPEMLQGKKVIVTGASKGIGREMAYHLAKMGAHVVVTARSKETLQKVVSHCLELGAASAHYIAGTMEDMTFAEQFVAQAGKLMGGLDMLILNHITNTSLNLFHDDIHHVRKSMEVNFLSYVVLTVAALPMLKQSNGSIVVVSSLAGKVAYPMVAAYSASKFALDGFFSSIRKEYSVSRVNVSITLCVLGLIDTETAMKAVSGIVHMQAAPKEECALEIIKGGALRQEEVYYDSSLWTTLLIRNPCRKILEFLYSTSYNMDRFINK
# T1 sequence (P50172 whole entry): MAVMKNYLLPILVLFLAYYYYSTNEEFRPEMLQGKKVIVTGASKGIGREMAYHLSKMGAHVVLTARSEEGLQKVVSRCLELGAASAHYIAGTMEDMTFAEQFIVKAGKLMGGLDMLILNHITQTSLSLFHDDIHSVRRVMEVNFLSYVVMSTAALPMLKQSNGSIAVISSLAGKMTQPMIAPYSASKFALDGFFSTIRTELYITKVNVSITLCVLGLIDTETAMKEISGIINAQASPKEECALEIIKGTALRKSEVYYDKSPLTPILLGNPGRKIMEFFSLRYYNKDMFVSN
Structure (SMILES),IC50 (mouse 11β-HSD1) [µM],IC50 (human 11β-HSD1; Table 2) [µM],IC50 (human 11β-HSD1; Table 1) [µM]
"CC1C(=O)N(C2C3CC4CC(C3)CC2C4)N1Cc1ccccc1 (stereo not drawn) [Example 8, 1-benzyl-4-methyl-2-(adamantan-2-yl)-1,2-diazetidin-3-one]",0.18,0.79,
"CC1(C)C(=O)N(C2C3CC4CC(C3)CC2C4)N1Cc1ccc(Cl)cc1 (stereo not drawn) [Example 13, 1-(4-chlorobenzyl)-4,4-dimethyl-2-(adamantan-2-yl)-1,2-diazetidin-3-one]",0.025,0.058,
"CC1(C)C(=O)N(C2C3CC4CC(C3)CC2C4)N1Cc1ccc(F)c(F)c1 (stereo not drawn) [Example 16, 1-(3,4-difluorobenzyl)-4,4-dimethyl-2-(adamantan-2-yl)-1,2-diazetidin-3-one]",0.1,0.8,
"CC1(C)C(=O)N(C2C3CC4CC(C3)CC2C4)N1Cc1cc(F)ccc1F (stereo not drawn) [Example 20, 1-(2,5-difluorobenzyl)-4,4-dimethyl-2-(adamantan-2-yl)-1,2-diazetidin-3-one]",0.2,0.35,
"CC1(C)C(=O)N(C2C3CC4CC(C3)CC2C4)N1Cc1ccccc1Cl (stereo not drawn) [Example 27, 1-(2-chlorobenzyl)-4,4-dimethyl-2-(adamantan-2-yl)-1,2-diazetidin-3-one]",0.094,0.03,
"CC1(C)C(=O)N(C2C3CC4CC(C3)CC2C4)N1C(=O)c1ccccc1I (stereo not drawn) [Example 121, 1-[(2-iodophenyl)carbonyl]-4,4-dimethyl-2-(adamantan-2-yl)-1,2-diazetidin-3-one]",,,0.07
"CC1(C)C(=O)N(C2C3CC4CC(C3)CC2C4)N1C(=O)c1cc(Cl)ccc1Cl (stereo not drawn) [Example 122, 1-[(2,5-dichlorophenyl)carbonyl]-4,4-dimethyl-2-(adamantan-2-yl)-1,2-diazetidin-3-one]",,,0.32
"CC1(C)C(=O)N(C2C3CC4CC(C3)CC2C4)N1C(=O)c1ccccc1N (stereo not drawn) [Example 136, 1-[(2-aminophenyl)carbonyl]-4,4-dimethyl-2-(adamantan-2-yl)-1,2-diazetidin-3-one]",,,0.14
"CC1(C)C(=O)N(C2CCCCCCC2)N1C(=O)c1cccc2ccccc12 [Example 154, 2-cyclooctyl-4,4-dimethyl-1-(naphthalen-1-ylcarbonyl)-1,2-diazetidin-3-one]",,,0.036
"CSc1ccccc1C(=O)N1N(C2C3CC4CC(C3)CC2C4)C(=O)C1(C)C (stereo not drawn) [Example 165, 4,4-dimethyl-1-{[2-(methylthio)phenyl]carbonyl}-2-(adamantan-2-yl)-1,2-diazetidin-3-one]",,,0.096
"CSc1ccccc1C(=O)N1N(C2CCCCCCC2)C(=O)C1(C)C [Example 168, 2-cyclooctyl-4,4-dimethyl-1-{[2-(methylthio)phenyl]carbonyl}-1,2-diazetidin-3-one]",,,0.11
"CC1(C)C(=O)N([C@H]2C3CC4CC2C[C@](O)(C4)C3)N1c1ccccc1 [Example 226, trans-2-(5-hydroxyadamantan-2-yl)-4,4-dimethyl-1-phenyl-1,2-diazetidin-3-one]",,,0.95
"Cc1ccccc1N1N([C@H]2C3CC4CC2C[C@@](O)(C4)C3)C(=O)C1(C)C [Example 242, cis-2-(5-hydroxyadamantan-2-yl)-4,4-dimethyl-1-(2-methylphenyl)-1,2-diazetidin-3-one]",,,0.076
"CC1(C)C(=O)N([C@H]2C3CC4CC2C[C@@](Cl)(C4)C3)N1c1cccc(Cl)c1Cl [Example 256, cis-2-(5-chloroadamantan-2-yl)-1-(2,3-dichlorophenyl)-4,4-dimethyl-1,2-diazetidin-3-one]",,,0.26

# Second part, the compound after the results:
IC50 (mouse 11β-HSD1) [µM],IC50 (human 11β-HSD1; Table 2) [µM],IC50 (human 11β-HSD1; Table 1) [µM],Structure (SMILES)
0.24,0.68,,"CC1C(=O)N(C2C3CC4CC(C3)CC2C4)N1Cc1ccc(Cl)cc1 (stereo not drawn) [Example 9, 1-(4-chlorobenzyl)-4-methyl-2-(adamantan-2-yl)-1,2-diazetidin-3-one]"
0.023,0.047,,"CC1(C)C(=O)N(C2C3CC4CC(C3)CC2C4)N1Cc1ccccc1 (stereo not drawn) [Example 12, 1-benzyl-4,4-dimethyl-2-(adamantan-2-yl)-1,2-diazetidin-3-one]"
0.088,0.84,,"Cc1ccc(CN2N(C3C4CC5CC(C4)CC3C5)C(=O)C2(C)C)cc1 (stereo not drawn) [Example 14, 4,4-dimethyl-1-(4-methylbenzyl)-2-(adamantan-2-yl)-1,2-diazetidin-3-one]"
0.084,0.36,,"CC1(C)C(=O)N(C2C3CC4CC(C3)CC2C4)N1Cc1ccc(F)cc1 (stereo not drawn) [Example 15, 1-(4-fluorobenzyl)-4,4-dimethyl-2-(adamantan-2-yl)-1,2-diazetidin-3-one]"
0.23,0.71,,"CC1(C)C(=O)N(C2C3CC4CC(C3)CC2C4)N1Cc1ccc(F)cc1F (stereo not drawn) [Example 17, 1-(2,4-difluorobenzyl)-4,4-dimethyl-2-(adamantan-2-yl)-1,2-diazetidin-3-one]"
0.27,0.47,,"CC1(C)C(=O)N(C2C3CC4CC(C3)CC2C4)N1Cc1cccc(F)c1F (stereo not drawn) [Example 19, 1-(2,3-difluorobenzyl)-4,4-dimethyl-2-(adamantan-2-yl)-1,2-diazetidin-3-one]"
0.079,0.64,,"CC1(C)C(=O)N(C2C3CC4CC(C3)CC2C4)N1Cc1cccc(F)c1 (stereo not drawn) [Example 22, 1-(3-fluorobenzyl)-4,4-dimethyl-2-(adamantan-2-yl)-1,2-diazetidin-3-one]"
,,0.11,"CCc1ccccc1C(=O)N1N(C2C3CC4CC(C3)CC2C4)C(=O)C1(C)C (stereo not drawn) [Example 126, 1-[(2-ethylphenyl)carbonyl]-4,4-dimethyl-2-(adamantan-2-yl)-1,2-diazetidin-3-one]"
,,0.66,"CC1(C)C(=O)N(C2C3CC4CC(C3)CC2C4)N1C(=O)c1ccc(F)cc1C(F)(F)F (stereo not drawn) [Example 132, 1-[(4-fluoro-2-trifluoromethylphenyl)carbonyl]-4,4-dimethyl-2-(adamantan-2-yl)-1,2-diazetidin-3-one]"
,,0.9,"Cc1ccc(C)c(C(=O)N2N(C3CCCCC3)C(=O)C2(C)C)c1 [Example 149, 2-cyclohexyl-1-[(2,5-dimethylphenyl)carbonyl]-4,4-dimethyl-1,2-diazetidin-3-one]"
,,0.72,"CC1(C)C(=O)N(C2C3CC4CC(C3)CC2C4)N1C(=O)c1cc(Cl)ccc1Br (stereo not drawn) [Example 163, 1-[(2-bromo-5-chlorophenyl)carbonyl]-4,4-dimethyl-2-(adamantan-2-yl)-1,2-diazetidin-3-one]"
,,0.041,"COCOc1ccc(N2N(C3C4CC5CC(C4)CC3C5)C(=O)C2(C)C)cc1 (stereo not drawn) [Example 214, 1-[4-(methoxymethoxy)phenyl]-4,4-dimethyl-2-(adamantan-2-yl)-1,2-diazetidin-3-one]"
,,0.68,"COc1ccccc1N1N(C2CC3CCC2C3)C(=O)C1(C)C (stereo not drawn) [Example 223, 2-(bicyclo[2.2.1]heptan-2-yl)-1-(2-methoxyphenyl)-4,4-dimethyl-1,2-diazetidin-3-one]"
,,0.54,"COc1ccc(N2N([C@H]3C4CC5CC3C[C@](O)(C5)C4)C(=O)C2(C)C)cc1 [Example 230, trans-2-(5-hydroxyadamantan-2-yl)-1-(4-methoxyphenyl)-4,4-dimethyl-1,2-diazetidin-3-one]"
,,0.32,"COc1ccc(N2N([C@H]3C4CC5CC3C[C@@](O)(C5)C4)C(=O)C2(C)C)cc1 [Example 240, cis-2-(5-hydroxyadamantan-2-yl)-1-(4-methoxyphenyl)-4,4-dimethyl-1,2-diazetidin-3-one]"
,,0.81,"CC1(C)C(=O)N([C@H]2C3CC4CC2C[C@@](O)(C4)C3)N1c1ccccc1O [Example 244, cis-1-(2-hydroxyphenyl)-2-(5-hydroxyadamantan-2-yl)-4,4-dimethyl-1,2-diazetidin-3-one]"
